Assays:
[1] = Fluorescence of Aldol 495 nonanoate in nutrient broth, sterile control; assay type: physicochemical
E. coli = test: Fluorescence of Aldol 495 nonanoate in nutrient broth cultures; assay type: cell-based
S. enteritidis = test: as above; settings: for Fluorescence values: S. enteritidis
Salmonella = Salmonella grown in medium with precursor emulsion in glass tubes; assay type: cell-based; settings: medium without detergents
[2] = tested on: various bacterial strains; test: Nonanoate indicators in buffered peptone water in polystyrene plates; assay type: cell-based; settings: 0.4 mM, polystyrene plate, 37° C., 48 hours, excitation 360 nm, emission 560 nm
Protocol: Buffered peptone water containing either 0.4 mM Aldol™ 495 nonanoate or 0.2 mM 4-methylumbelliferyl nonanoate was dispensed in a microtiter plate and inoculated with about 700 cfu/ml of various bacterial strains. […] An excitation wavelength of 360 nm was used for both dyes, the emission wavelength was 560 nm for the Aldol™ 495 dye and 460 nm for the 4-methylumbelliferone.

CCCCCCCCC(=O)Oc1cn(-c2ccccc2C(=O)c2cccn2C)c2cc(Cl)ccc12 [Aldol™ 495 nonanoate]
Fluorescence values ([1]; stock solution 50 mM, 0 h): 392 RFU | Fluorescence values ([1]; stock solution 50 mM, 12 h): 445 RFU | Fluorescence values ([1]; stock solution 50 mM, 18 h): 434 RFU | Fluorescence values ([1]; stock solution 50 mM, 48 h): 511 RFU | Fluorescence values ([1]; stock solution 50 mM, 120 h): 523 RFU | Fluorescence values ([1]; stock solution 200 mM, 0 h): 433 RFU | Fluorescence values ([1]; stock solution 200 mM, 12 h): 399 RFU | Fluorescence values ([1]; stock solution 200 mM, 18 h): 411 RFU | Fluorescence values ([1]; stock solution 200 mM, 48 h): 422 RFU | Fluorescence values ([1]; stock solution 200 mM, 120 h): 455 RFU | Fluorescence values (E. coli; stock solution 50 mM, 0 h): 424 RFU | Fluorescence values (E. coli; stock solution 50 mM, 12 h): 463 RFU | Fluorescence values (E. coli; stock solution 50 mM, 18 h): 551 RFU | Fluorescence values (E. coli; stock solution 50 mM, 48 h): 1710 RFU | Fluorescence values (E. coli; stock solution 50 mM, 120 h): 3851 RFU | Fluorescence values (E. coli; stock solution 200 mM, 0 h): 444 RFU | Fluorescence values (E. coli; stock solution 200 mM, 12 h): 404 RFU | Fluorescence values (E. coli; stock solution 200 mM, 18 h): 468 RFU | Fluorescence values (E. coli; stock solution 200 mM, 48 h): 774 RFU | Fluorescence values (E. coli; stock solution 200 mM, 120 h): 1924 RFU | Fluorescence signal, indicator added from 20 mM stock solution versus 200 mM stock solution (S. enteritidis): stronger fluorescence signal | Fluorescence values (S. enteritidis; stock solution 50 mM, 0 h): 406 RFU | Fluorescence values (S. enteritidis; stock solution 50 mM, 12 h): 2922 RFU | Fluorescence values (S. enteritidis; stock solution 50 mM, 18 h): 10047 RFU | Fluorescence values (S. enteritidis; stock solution 50 mM, 48 h): 45027 RFU | Fluorescence values (S. enteritidis; stock solution 50 mM, 120 h): 13424 RFU | Fluorescence values (S. enteritidis; stock solution 200 mM, 0 h): 412 RFU | Fluorescence values (S. enteritidis; stock solution 200 mM, 12 h): 1812 RFU | Fluorescence values (S. enteritidis; stock solution 200 mM, 18 h): 3449 RFU | Fluorescence values (S. enteritidis; stock solution 200 mM, 48 h): 8403 RFU | Fluorescence values (S. enteritidis; stock solution 200 mM, 120 h): 5169 RFU | Fluorescence of Salmonella culture (Salmonella): yellow green fluorescence | Specificity of fluorescence [2]: specific for Salmonella strains

From patent publication US9157917B2, “Applications of Indoloindole and Indoloquinoline dyes” (Biosynth AG, priority 2010, dated 2015)
